pIC50: −log10 of the molar value. Like-named read-outs stand apart in the source and are kept apart here.
Assays:
HCV [1] = test: In vitro HCV RNA replication assay in AVA5 cells (dot blot); format: cell-based, Hepatitis C virus (HCV)
[2] = Toxicity in AVA5 cells, neutral red dye uptake; conditions: human, AVA5 cells (HCV RNA replicating cell line derived from Huh7)
AVA5 cells = test: Actin mRNA level in AVA5 cells (nonspecific inhibitory activity); format: cell-based, human; conditions: 3 days, ADI-PEG20 0.01 IU/ml, alpha interferon 10 IU/ml, ribavirin 100 μM
HCV [3] = conditions: cited from earlier work
[4] = cited from earlier work
[5] = humans chronically infected with HCV
[6] = HCV mRNA levels, AVA5 cells, 3 days

Row | Molecule | pIC50 (HCV [1]; Hepatitis C virus, 72 h, HCV mRNA levels, AVA5 cells, 3 days, read-out: IC50) | IC90 (HCV [1]; Hepatitis C virus, 72 h, HCV mRNA levels, AVA5 cells, 3 days, read-out: IC90) | inhibition at 100 µM (HCV [1]; Hepatitis C virus, Ava5, 72 h) | CC50 at 3 days [2] | mRNA % inhibition of actin (AVA5 cells) | patients in whom effective (HCV [3]; [5]) | treatment required to achieve a 50% reduction in HCV titers (HCV [3]; [5]) | patients who initially responded to the therapy (HCV [3]; various clinical trials) | responders who relapsed after the treatment ended (HCV [3]; various clinical trials) | patients with influenza-like illness with fever, chills, myalgias and malaise ([4]; PEG and non PEG formulated versions) | patients with neuropsychiatric complications ([4]; depression, irritability, anxiety) | alopecia ([4]; human, in vivo) | bone marrow suppression with granulocytopenia, anemia or thrombocytopenia ([4]; human, in vivo) | % inhibition of HCV (HCV [1]; AVA5 cells, 3 days, ADI-PEG20 0.01 IU/ml, alpha interferon 10 IU/ml, ribavirin 100 μM) | IC50 (HCV [1]; [6]) | IC90 (HCV [1]; [6]) | SI (HCV [1]; selectivity index CC50/EC50, AVA5 cells)
1 | NC(=O)c1ncn([C@@H]2O[C@H](CO)[C@@H](O)[C@H]2O)n1 [ribavirin, 1-β-D-ribo-furanosyl-1,2,4-trizole-3-carboxamide] | < 5.00 | > 10 µM | 25% | 74 µM | 98% | – | – | – | – | – | – | – | – | – | – | – | –
2 | alpha interferon | – | – | – | – | 11% | ~50% | 3-6 months | approximately 40% | 70% | up to 82% | ~20% | ~5% | ~5% | 92% | 2.1 IU/ml | 9.0 IU/ml | >4762

— patent publication US20070172469A1, “Methods For Inhibiting Viral Replication In Vivo” (priority 2002, published 2007)
